According to paper PMC10702189, “Tetrazine Glycoconjugate for Pretargeted Positron Emission Tomography Imaging of trans-Cyclooctene-Functionalized Molecular Spherical Nucleic Acids” (ACS Omega, 2023):

Tests used:
[1] = Radioactivity distribution in blood components after i.v. injection in healthy mice; format: in vivo; details: for Proportion of intact tracer in plasma: radio-HPLC
Description: To measure the radioactivity binding to blood cells, the blood obtained by cardiac puncture was placed into a lithium heparin tube, mixed according to the manufacturer’s instructions, and placed on ice. The blood sample was centrifuged at 4 °C for 5 min at 2118 × g. The plasma was separated by pipetting, and blood cells and plasma radioactivities were measured with a 1480 Wizard gamma counter (PerkinElmer/Wallac, Turku, Finland).
To determine the radioactivity portion bound to plasma proteins, plasma was mixed with an equal volume of acetonitrile and centrifuged at 14000 × g for 2 min at r.t. The radioactivity of both the supernatant and the protein pellet was measured with Wizard.
To determine the portion of intact tracer in plasma, a sample of deproteinized plasma supernatant was diluted with 0.1% TFA in water and analyzed with radio-HPLC.[60]

[2] = In vivo dynamic PET/CT imaging in healthy Balb/cAnNrj mice; details: dynamic PET
Description: (§1) Animal studies were approved by the national Project Authorization Board in Finland (licenses: ESAVI/12132/04.10.07/2017 and ESAVI/8648/2020) and were carried out in compliance with EU Directive 2010/EU/63 on the protection of animals used for scientific purposes. Healthy female Balb/cAnNrj mice (9–14 weeks old, 19 weeks old for fasting studies) were used for experiments with [^18F]FDG-Tz. Female Rj:Athymic-Foxn1^nu/nu mice (8–10 weeks old) bearing subcutaneous HER2-expressing HCC1954 tumors were used for pretargeted and control preclicked experiments with [^18F]TCO-MSNA, detailed information for the mice preparation was described earlier.[59] Animals were housed in individually ventilated cages under a 12 h light/dark cycle with ad libitum access to water and food unless otherwise stated. Animals were anesthetized with isoflurane (induction 4–5%, maintenance 1.5–2.5%, 0.4 L/min O2) and sacrificed by cervical dislocation after applying cardiac puncture for blood collection.
For in vivo [^18F]FDG-Tz studies, four mice were injected with 4.0–4.8 MBq in 50–80 μL volume via the tail vein. Animals were imaged with Molecubes β-cube (PET) and X-cube (CT) (MOLECUBES NV, Ghent, Belgium) for 60 min and reconstructed into time frames 30 × 10, 15 × 60, 4 × 300 s, and 2 × 600 s. For pretargeted experiments as well as control imaging with preclicked [^18F]TCO-MSNA, Inveon Multimodality PET/CT (Siemens Medical Solutions, Knoxville, TN, USA) was used to perform dynamic PET with 6 × 10, 4 × 60, and 11 × 300 s time frames. For pretargeted imaging, TCO-MSNA (50 μL, 2.5 nmol of TCO) was injected 20 min prior to [^18F]FDG-Tz (63 ± 17 μL) administration via the tail vein. For all experiments two animals were imaged at the same time under isoflurane anesthesia. Mice were sacrificed immediately after imaging for ex vivo evaluation.
Image analysis was performed with Carimas software (version 2.10, Turku PET Centre, Turku, Finland). CT scans were utilized as an anatomical reference combined with the radioactivity signal from PET images. Regions of interest (ROIs) within the selected organs were defined in three dimensions. Blood pool results were obtained from the heart left ventricle cavity; tumor ROIs were drawn excluding the fluid-filled tumor core (Figure S13). Standardized uptake values (SUV) were calculated, corrected with the remaining radioactivity in the cannula, tail, and syringe, and decay-corrected to the time of injection.

[3] = tested on: HER2-expressing HCC1954 tumors; assay: PET/CT imaging (pretargeted, preclicked, tracer alone) in HCC1954 tumor-bearing mice; format: in vivo; details: HCC1954 tumor-bearing female mice, 60 min postinjection
Description: as §1, with “collection. […]” for “collection.”
Image analysis was performed with Carimas software (version 2.10, Turku PET Centre, Turku, Finland). CT scans were utilized as an anatomical reference combined with the radioactivity signal from PET images. […] Standardized uptake values (SUV) were calculated, corrected with the remaining radioactivity in the cannula, tail, and syringe, and decay-corrected to the time of injection. […]

O=C(CCON=C[C@H]([18F])[C@@H](O)[C@H](O)[C@H](O)CO)NCc1ccc(-c2nncnn2)cc1 [[^18F]FDG-Tz]
Blood cell binding of radioactivity ([1]; 15 min postinjection): 37.6% ± 3.0
Plasma protein binding of radioactivity ([1]; 15 min postinjection): 9.1% ± 3.5
Blood cell binding of radioactivity ([1]; 60 min postinjection): 58.1%
Plasma protein binding of radioactivity ([1]; 60 min postinjection): 22.7%
Proportion of intact tracer in plasma ([1]; 60 min postinjection): 52%
Proportion of intact tracer in plasma ([1]; first time point (15 min, n = 3)): 93.7% ± 5.1
Heart SUV ([2]; 0.6 min): 5.06 ± 4.25 SUV
Blood SUV ([2]; 0.8 min): 5.26 ± 2.69 SUV
Brain SUVpeak ([2]; 0.8 min): 0.33 ± 0.20 SUV
Liver SUV ([2]; 4.5 min): 5.63 ± 1.11 SUV
Blood SUV ([2]; 60 min): 0.43 ± 0.06 SUV
Brain SUV ([2]; 60 min): 0.05 ± 0.01 SUV
Heart SUV ([2]; 60 min): 0.41 ± 0.05 SUV
Liver SUV ([2]; 60 min): 2.00 ± 0.57 SUV
Tumor SUV [3]: 0.16 ± 0.04 SUV
